Measurements published in patent US6406709B1, “Method for inhibiting nematocyst discharge” (Nidaria Technology Ltd., priority 1997, dated 2002).

Experiments:
[1] = test system: nematocysts of jellyfish or sea anemone tentacles; test: Artemia adhesion/paralysis test of nematocyst discharge by tentacle fragments in sea water; assay type: cell-based
Description: To initially test inhibition of nematocyst discharge, the following test was performed. It is typical behavior for jellyfish or sea anemone tentacles to adhere to and paralyze newly hatched nauplii of Artemia sp. The adhesion and subsequent paralysis is characteristic of nematocyst discharge by the tentacles. Small 2 to 3 mm fragments of jellyfish or sea anemone tentacles were prepared and placed in a 12-well plate containing filtered sea water. The tentacle fragments were washed by changing the filtered sea water three times. One mL of filtered sea water was left in each well after the final wash. […] The 6 wells without the antihistamine served as controls. Ten Artemia sp. were added to each well in a total volume of between 50 and 100 uL of filtered sea water. After 2 minutes, the number of attached or paralyzed Artemia in each well was measured.

[2] = test system: Pelagia noctiluca nematocysts; test: Nematocyst discharge into human skin slides, Monterey Bay Aquarium; conditions: glycerol plus 0.2% diphenhydramine, exposure 10 to 15 seconds
Description: (§1) Normal human skin (HS) was obtained from neonatal elective circumcision. The skin was immediately placed into sterile phosphate buffered saline (PBS) containing antibiotic/antimycotic. The tissue was frozen embedded in Tissue-Tek™. The tissue was then sectioned into 50 μm sections using a cryostat. The sections were attached to glass slides coated with polylysine and maintained at −70° C. until time of use. All sections were examined to ensure that they were perpendicular to the plane of the epidermis, exposing cross-sections of epidermis, dermis and sub-cutaneous tissue.
(§2) The slides prepared and frozen as described above were thawed at room temperature. The slides were submersed in sea water for approximately 10 seconds and then attached to jellyfish or sea anemones tentacles for approximately 10 seconds. The tentacles were detached, the slides washed two times with PBS, and blocked using 5% Fetal Bovine serum (FBS), and 0.1% Triton X100 in PBS (blocking solution). All washing and incubation steps were conducted on a tilting shaker at room temperature. The slides were incubated in 10 mL of blocking solution containing a 1:2,500 dilution of the anti-toxin antibody for one hour. After incubation, the slides were washed five times for five minutes each wash with 100 mL of 0.1% TritonX100 in PBS (Wash solution). […]

Auzelia nematocysts = test: Nematocyst discharge into human skin slides; conditions: N=3 test, 3 each control; control discharged less than 100
Description: as §1, §2

[3] = test system: Chrysaora quinquecirrha nematocysts; test: Nematocyst discharge into human skin slides, Monterey Bay Aquarium; conditions: glycerol plus 0.2% diphenhydramine, exposure 10 to 15 seconds
Description: as §1, §2

[4] = test system: isolated nematocyst capsules; conditions: 50 mM CaCl2; cited from earlier work

CN(C)CCOC(c1ccccc1)c1ccccc1.Cl [diphenhydramine, diphenhydramine hydrochloride]
effect on the number of Artemia paralyzed by nematocysts ([1]; 0.02% in sea water, versus sea water alone): significantly decreased
Artemia paralyzed by nematocysts, all wells together ([1]; out of 64 Artemia, 50 of 64 without antihistamine): 11
reduction in nematocyst discharged [2]: significant reduction
decrease in nematocyst discharge (Auzelia nematocysts): ten-fold decrease
decrease of nematocyst discharge [3]: 2.5-5 fold

[Ca+2].[Cl-].[Cl-] [CaCl2]
discharge of isolated nematocyst capsules [4]: do not discharge
